Test results: patent US20100120701A1, “Compositions and Methods For Engineering Probiotic Yeast” (Glycosyn, Inc., priority 2008, published 2010)

What was measured:
calicivirus diarrhea = assay: Calicivirus diarrhea in breastfed infants by milk oligosaccharide level; format: in vivo, human; conditions: 93 nursing children consuming milk with high amounts; Poisson regression, P=0.012
Protocol: Milk samples were obtained weeks 2-5 postpartum from 93 Mexican mothers; the mothers and infants were followed from birth up to 2 yr postpartum. The clinical histories of the infants were recorded prospectively, and concentrations of individual oligosaccharides in these milk samples were measured. The most common oligosaccharides in maternal milk were those that were fucosylated, comprising 73% (50%-92%) of total oligosaccharide. Of these, 2′FL, the oligosaccharide homolog of the Lewis H-2 epitope, was the most common in the milks of all mothers. The mean concentration of 2′FL in milk was 3854±108 nmol/mL (34% of total fucosylated oligosaccharides), but varied greatly among mothers according to their Lewis blood group type.
Thus, human milk containing high levels of specific oligosaccharides are associated with decreased risk of pathogen-specific diarrhea and diarrhea overall. […] Because both the oligosaccharide and the high-molecular-weight glycans that share the same glycan epitope are synthesized by the same fucosyltransferase, the relationship between the oligosaccharide expression in milk and decreased risk in the infant reflects the synthetic capacity of the mother for both the free oligosaccharide and the homologous glycan. Specific human milk oligosaccharides protect breastfed children from disease by inhibiting binding of pathogens to the child's intestinal receptors.

Campylobacter jejuni = assay: C. jejuni binding to CHO cells transfected with a human α(1,2)-fucosyltransferase gene; format: cell-based; conditions: CHO cells overexpressing H-2 antigen

Molecule: CC(=O)N[C@H]1[C@H](O[C@H]2[C@@H](O)[C@@H](CO)O[C@@H](O[C@H]3[C@H](O)[C@@H](O)C(O)O[C@@H]3CO)[C@@H]2O)O[C@H](CO)[C@@H](O[C@@H]2O[C@@H](C)[C@@H](O)[C@@H](O)[C@@H]2O)[C@@H]1O[C@@H]1O[C@H](CO)[C@H](O)[C@H](O)[C@H]1O[C@@H]1O[C@@H](C)[C@@H](O)[C@@H](O)[C@@H]1O (some centres unmarked) [LDFH-I]
- protection against calicivirus diarrhea (calicivirus diarrhea): associated with protection

B1: UEA I: ligand (lectin) that binds to H-2 (protein, UniProt P22972 1-243, looked up)
Anti-H(O) lectin 1: SDDLSFKFKNFSQNGKDLSFQGDASVIETGVLQLNKVGNNLPDETGGIARYIAPIHIWNCNTGEVASFITSFSFFMETSANPKAATDGLTFFLAPPDSPLRRAGGYFGLFEDTKDNDSSYQTVAVEFDTIGSPVNFDDPGFPHIGIDVNRVKSINAERWNKRYGLNNVANVEIIYEASSKTLTASLTYPSDQTSISVTSIVDLKEILPEWVSVGFSGGTYIGRQATHEVLNWYFTSNLINTNS
- inhibition of C. jejuni binding to transfected CHO cells (Campylobacter jejuni): inhibited
